Reference: ChEMBL document CHEMBL5096227, “Discovery of Ervogastat (PF-06865571): A Potent and Selective Inhibitor of Diacylglycerol Acyltransferase 2 for the Treatment of Non-alcoholic Steatohepatitis” (J Med Chem, 2022)

Tests used:
[1] = Inhibition of [14C]-glycerol incorporation into triglycerides in rat primary hepatocytes; format: functional, cell-based; conditions: hepatocyte
[2] = Drug metabolism in monkey hepatocytes assessed as oxidation of THF ring mediated metabolite formation; format: ADME, cell-based, Macaca mulatta, Hepatocyte; conditions: rhesus monkey
[3] = Drug metabolism in cryopreserved human hepatocytes assessed as oxidation of THF ring mediated metabolite formation at 10 uM measured for 240 mins by HPLC-UV-MS analysis; format: ADME, cell-based, Hepatocyte; conditions: 4 h
[4] = Toxicity in non-human primates assessed as development-limiting toxicity
[5] = molecular target: T1, Diacylglycerol O-acyltransferase 2 (Rattus norvegicus, UniProt Q5FVP8); experiment: Inhibition of rat DGAT2 using [1-14C]decanoyl-CoA and 1,2-didecanoyl-sn-glycerol as substrates assessed as incorporation of [1-14C]decanoyl into triacylglycerol preincubated for 120 mins followed by substrate addition and measured after 40 mins by scintillation counting method
T1 sequence (Q5FVP8 whole entry): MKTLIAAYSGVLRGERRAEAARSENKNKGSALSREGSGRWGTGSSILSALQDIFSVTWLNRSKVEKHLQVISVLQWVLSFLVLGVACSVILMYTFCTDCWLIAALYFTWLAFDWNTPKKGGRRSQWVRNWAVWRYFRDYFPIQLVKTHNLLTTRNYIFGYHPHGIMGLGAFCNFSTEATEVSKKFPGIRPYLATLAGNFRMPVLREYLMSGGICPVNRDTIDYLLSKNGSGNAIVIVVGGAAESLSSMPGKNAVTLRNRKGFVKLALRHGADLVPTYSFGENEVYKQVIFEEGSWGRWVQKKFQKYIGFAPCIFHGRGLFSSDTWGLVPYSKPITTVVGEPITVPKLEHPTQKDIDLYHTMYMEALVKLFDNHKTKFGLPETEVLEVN

[6] = Drug metabolism in rat hepatocytes assessed as O-deethylation mediated pyridin-3-ol mediated metabolite formation; format: ADME, cell-based, Hepatocyte
[7] = Apparent intrinsic clearance in cryopreserved human hepatocytes measured per million cells at 1 uM incubated for 4 hrs by LC-MS/MS analysis; format: ADME, cell-based, Hepatocyte; conditions: cryopreserved human hepatocytes, read-out: CLH
[8] = Half life in Wistar Han rat at 1 mg/kg, iv; format: ADME, organism-based; conditions: in vivo
[9] = Drug metabolism in monkey hepatocytes assessed as O-deethylation mediated pyridin-3-ol mediated metabolite formation; format: ADME, cell-based, Macaca mulatta, Hepatocyte; conditions: rhesus monkey
Cytochrome P450 2C9 = Cytochrome P450 2C9 (Homo sapiens, UniProt P11712); experiment: Reversible inhibition of CYP2C9 in pooled human liver microsomes using 4-Hydroxydiclofenac as substrate incubated for 10 mins in presence of NADPH by HPLC-MS/MS analysis; format: ADME, Microsome
Sequence of Cytochrome P450 2C9 (P11712 whole entry): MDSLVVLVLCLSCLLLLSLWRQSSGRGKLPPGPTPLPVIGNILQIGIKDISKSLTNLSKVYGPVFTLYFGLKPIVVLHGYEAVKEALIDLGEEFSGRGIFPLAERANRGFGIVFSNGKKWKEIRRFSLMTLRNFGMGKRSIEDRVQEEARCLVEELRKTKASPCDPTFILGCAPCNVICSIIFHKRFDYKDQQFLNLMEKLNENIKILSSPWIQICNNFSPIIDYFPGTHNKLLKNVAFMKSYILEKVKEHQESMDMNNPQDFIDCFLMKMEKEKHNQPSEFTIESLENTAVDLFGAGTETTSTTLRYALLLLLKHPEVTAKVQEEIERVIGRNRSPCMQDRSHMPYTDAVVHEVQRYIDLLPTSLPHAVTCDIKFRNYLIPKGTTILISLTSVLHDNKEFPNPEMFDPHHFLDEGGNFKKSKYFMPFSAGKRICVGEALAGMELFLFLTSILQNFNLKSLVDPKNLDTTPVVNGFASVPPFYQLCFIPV

[10] = In vivo inhibition of DGAT2 in sucrose diet fed Sprague-Dawley rat assessed as reduction in triglyceride level at 90 mg/kg, po administered as single dose and measured after 2 hrs relative to control; format: functional; parameters: scale not given: the % may be the effect or the level left
Rattus norvegicus = experiment: In vivo inhibition of DGAT2 in sucrose diet fed Sprague-Dawley rat assessed as reduction in triglyceride level administered as single oral dose and measured after 2 hrs; format: functional, organism-based; conditions: dose 0.3-90 mg/kg, DDE = dose-dependent effect
[11] = Half life in Wistar Han rat at 5 mg/kg, po; format: ADME, organism-based; conditions: in vivo
[12] = Plasma protein binding in human assessed as unbound fraction ratio at 2 uM; format: ADME, cell-free
[13] = Plasma clearance in Wistar Han rat at 1 mg/kg, iv; format: ADME, organism-based
Cytochrome P450 1A2 = molecular target: T2, Cytochrome P450 1A2 (Homo sapiens, UniProt P05177); experiment: Reversible inhibition of CYP1A2 in pooled human liver microsomes using […] as substrate incubated for 20 mins in presence of NADPH by HPLC-MS/MS analysis; format: ADME, Microsome
T2 sequence (P05177 whole entry): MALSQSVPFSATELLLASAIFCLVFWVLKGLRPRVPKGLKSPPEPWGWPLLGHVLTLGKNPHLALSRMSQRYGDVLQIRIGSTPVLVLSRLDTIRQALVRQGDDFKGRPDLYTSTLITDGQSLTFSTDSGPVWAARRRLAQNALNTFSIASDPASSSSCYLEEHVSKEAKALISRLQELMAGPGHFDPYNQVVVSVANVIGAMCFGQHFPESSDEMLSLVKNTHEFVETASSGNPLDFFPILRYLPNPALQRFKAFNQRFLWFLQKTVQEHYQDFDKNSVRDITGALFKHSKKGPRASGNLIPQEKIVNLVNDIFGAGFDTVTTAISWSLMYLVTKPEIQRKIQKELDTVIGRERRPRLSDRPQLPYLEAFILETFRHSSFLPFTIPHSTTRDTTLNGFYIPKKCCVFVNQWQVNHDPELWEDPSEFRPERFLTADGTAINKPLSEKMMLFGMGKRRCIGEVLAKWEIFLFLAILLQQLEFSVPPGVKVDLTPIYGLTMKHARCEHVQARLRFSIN

Cytochrome P450 2B6 = molecular target: T3, Cytochrome P450 2B6 (Homo sapiens, UniProt P20813); experiment: Reversible inhibition of CYP2B6 in pooled human liver microsomes; format: ADME, Microsome
T3 sequence (P20813 whole entry): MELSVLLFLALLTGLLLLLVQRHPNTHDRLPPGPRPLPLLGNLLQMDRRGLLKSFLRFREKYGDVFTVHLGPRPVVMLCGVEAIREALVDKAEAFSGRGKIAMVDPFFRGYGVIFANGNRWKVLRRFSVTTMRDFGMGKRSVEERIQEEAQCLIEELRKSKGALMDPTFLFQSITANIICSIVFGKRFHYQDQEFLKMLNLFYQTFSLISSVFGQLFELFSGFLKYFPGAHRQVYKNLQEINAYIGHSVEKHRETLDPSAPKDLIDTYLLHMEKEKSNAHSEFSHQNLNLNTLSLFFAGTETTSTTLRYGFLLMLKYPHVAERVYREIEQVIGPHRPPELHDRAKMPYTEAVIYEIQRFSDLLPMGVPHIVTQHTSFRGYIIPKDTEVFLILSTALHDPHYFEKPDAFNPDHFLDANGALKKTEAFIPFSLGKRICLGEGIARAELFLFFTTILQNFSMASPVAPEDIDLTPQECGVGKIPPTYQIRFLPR

[14] = Plasma protein binding in rat assessed as unbound fraction ratio at 2 uM; format: ADME, cell-free
[15] = Cardiotoxicity in non-human primates assessed as development-limiting toxicity
[16] = Drug metabolism in rat hepatocytes assessed as oxidation of THF ring mediated metabolite formation; format: ADME, cell-based, Hepatocyte

- Drug metabolism [2]: Metabolite_Detected
- Drug metabolism [3]: Metabolite_Detected
- IC50 [5]: 0.833 µM
- Drug metabolism [6]: Metabolite_Detected
- hepatocyte CLint at 1 µM [7]: < 4 µL/min/1e6 cells
- half-life [8]: 18 min
- Drug metabolism [9]: Metabolite_Detected
- IC50 (Cytochrome P450 2C9): 8.7 µM
- half-life [11]: 60 min
- Ratio [12]: 0.353
- clearance [13]: 61 mL/min/kg
- IC50 (Cytochrome P450 1A2): > 100 µM
- IC50 (Cytochrome P450 2B6): > 100 µM
- Ratio [14]: 0.213
- Drug metabolism [16]: Metabolite_Detected
SMILES: CCOc1cccnc1Oc1cncc(-c2ncc(C(=O)N[C@H]3CCOC3)cn2)c1 [PF-06865571]
- IC50 [1]: 0.00602 µM
- Activity [4]: Non-Toxic
- Activity [10]: 76%
- inhibition (Rattus norvegicus): Dde
- Activity [15]: Non-Toxic
